Measurements reported in PMC8373983, “Effect of salinity on the zinc(II) binding efficiency of siderophore functional groups and implications for salinity tolerance mechanisms in barley” (Scientific Reports, 2021).
Where two headings read alike, the source gives them in different places. Blank lines part the entries; values can stand above or below the compound they belong to.

Assays:
barley plants = details: cited from earlier work
[1] = system: wild and cultivated barley plants; details: 0.20 M NaCl; hydroponic, no initial micronutrient deficiencies; cited from earlier work
[2] = Zinc(II) hydrolysis constants, potentiometric titration in NaCl; type: physicochemical; details: T = 298.1 K
Procedure: A 30 ml solution containing each ligand ([L] = 5 – 10 mM), NaCl and HCl was titrated with standard NaOH solutions. For the zinc(II)/ligand systems, the titrant solutions consisted of different amounts of ligand ([L] = 5 − 10 mM), zinc(II) ([Zn] = 0.5—5 mM) and a suitable amount of HCl and NaCl. All the measurements were carried out with an excess of the ligand, with respect to zinc(II) and at different zinc(II):ligand molar ratios. The selection of ratios investigated was determined by simulating titrations using Hyperquad Simulation and Speciation computer software (HySS)[41]. [Zn] and [L] were negligible compared to the background electrolyte concentrations. […] To account for the influence of zinc(II) hydrolysis in the zinc(II)/ligand systems, zinc(II) titrations were carried out separately at each ionic strength to determine the hydroxide constants so that these constants could be included in the equilibrium model used to refine the titration data. In these titrations, the zinc(II) concentration in the analyte solution was 0.7 mM.
The software program Hyperquad was used to determine the equilibrium model and to calculate pKa and stability constants from the potentiometric data set[43]. For each set of pKa constants or zinc(II):ligand ratio studied, at least two repeat titrations were performed. The titration curves for each system were treated as a single set when refining the stability constants. This meant that the refinement procedure was run on both curves at the same time to derive a single set of constants. The error reported on the stability constants is the standard deviation given in the Hyperquad output file. Examples of Hyperquad files for the zinc(II)/PYR system are provided on the Zenodo repository (https://doi.org/10.5281/zenodo.4641710).

SMILES: [Cl-].[Na+] [NaCl]
- Zinc(II) content ratio (barley plants; Leaves, Iranis, 0.08 M NaCl, pH 7.5, soil, 350 μmol/mol CO2): 0.88
- Zinc(II) content ratio (barley plants; Leaves, Iranis, 0.08 M NaCl, pH 7.5, soil, 700 μmol/mol CO2): 1.25
- Zinc(II) content ratio (barley plants; Leaves, Iranis, 0.16 M NaCl, pH 7.5, soil, 350 μmol/mol CO2): 0.94
- Zinc(II) content ratio (barley plants; Leaves, Iranis, 0.16 M NaCl, pH 7.5, soil, 700 μmol/mol CO2): 1.19
- Zinc(II) content ratio (barley plants; Leaves, Iranis, 0.24 M NaCl, pH 7.5, soil, 350 μmol/mol CO2): 1.35
- Zinc(II) content ratio (barley plants; Leaves, Iranis, 0.24 M NaCl, pH 7.5, soil, 700 μmol/mol CO2): 1.31
- Zinc(II) content ratio (barley plants; Roots, CM72, 0.15 M NaCl, pH 6.5, soil, Cr 0 μM): 0.68
- Zinc(II) content ratio (barley plants; Roots, CM72, 0.15 M NaCl, pH 6.5, soil, Cr 10 μM): 0.66
- Zinc(II) content ratio (barley plants; Roots, CM72, 0.15 M NaCl, pH 6.5, soil, Cr 50 μM): 0.82
- Zinc(II) content ratio (barley plants; Roots, Gairdner, 0.15 M NaCl, pH 6.5, soil, Cr 0 μM): 0.51
- Zinc(II) content ratio (barley plants; Roots, Gairdner, 0.15 M NaCl, pH 6.5, soil, Cr 10 μM): 0.56
- Zinc(II) content ratio (barley plants; Roots, Gairdner, 0.15 M NaCl, pH 6.5, soil, Cr 50 μM): 0.59
- Zinc(II) content ratio (barley plants; Roots, Iranis, 0.08 M NaCl, pH 7.5, soil, 350 μmol/mol CO2): 1.08
- Zinc(II) content ratio (barley plants; Roots, Iranis, 0.08 M NaCl, pH 7.5, soil, 700 μmol/mol CO2): 1.11
- Zinc(II) content ratio (barley plants; Roots, Iranis, 0.16 M NaCl, pH 7.5, soil, 350 μmol/mol CO2): 0.90
- Zinc(II) content ratio (barley plants; Roots, Iranis, 0.16 M NaCl, pH 7.5, soil, 700 μmol/mol CO2): 1.00
- Zinc(II) content ratio (barley plants; Roots, Iranis, 0.24 M NaCl, pH 7.5, soil, 350 μmol/mol CO2): 0.97
- Zinc(II) content ratio (barley plants; Roots, Iranis, 0.24 M NaCl, pH 7.5, soil, 700 μmol/mol CO2): 0.96
- Zinc(II) content ratio (barley plants; Shoots, CM72, 0.15 M NaCl, pH 6.5, soil, Cr 0 μM): 0.79
- Zinc(II) content ratio (barley plants; Shoots, CM72, 0.15 M NaCl, pH 6.5, soil, Cr 10 μM): 0.82
- Zinc(II) content ratio (barley plants; Shoots, CM72, 0.15 M NaCl, pH 6.5, soil, Cr 50 μM): 0.98
- Zinc(II) content ratio (barley plants; Shoots, Gairdner, 0.15 M NaCl, pH 6.5, soil, Cr 0 μM): 0.67
- Zinc(II) content ratio (barley plants; Shoots, Gairdner, 0.15 M NaCl, pH 6.5, soil, Cr 10 μM): 0.72
- Zinc(II) content ratio (barley plants; Shoots, Gairdner, 0.15 M NaCl, pH 6.5, soil, Cr 50 μM): 0.97
- Zinc(II) content ratio (barley plants; Stems, Iranis, 0.08 M NaCl, pH 7.5, soil, 350 μmol/mol CO2): 1.25
- Zinc(II) content ratio (barley plants; Stems, Iranis, 0.08 M NaCl, pH 7.5, soil, 700 μmol/mol CO2): 0.95
- Zinc(II) content ratio (barley plants; Stems, Iranis, 0.16 M NaCl, pH 7.5, soil, 350 μmol/mol CO2): 0.81
- Zinc(II) content ratio (barley plants; Stems, Iranis, 0.16 M NaCl, pH 7.5, soil, 700 μmol/mol CO2): 0.95
- Zinc(II) content ratio (barley plants; Stems, Iranis, 0.24 M NaCl, pH 7.5, soil, 350 μmol/mol CO2): 1.19
- Zinc(II) content ratio (barley plants; Stems, Iranis, 0.24 M NaCl, pH 7.5, soil, 700 μmol/mol CO2): 1.16
- Zinc(II) content ratio (barley plants; Whole-plant, Bajwar-200, 0.04 M NaCl, pH 5.6, hydroponic): 0.99
- Zinc(II) content ratio (barley plants; Whole-plant, Bajwar-200, 0.08 M NaCl, pH 5.6, hydroponic): 1.03
- Zinc(II) content ratio (barley plants; Whole-plant, Bajwar-200, 0.12 M NaCl, pH 5.6, hydroponic): 1.18
- Zinc(II) content ratio (barley plants; Whole-plant, TARM-92, 0.09 M NaCl, pH 8.1, soil, seeds soaked in 0.5 mM Kinetin): 1.12
- Zinc(II) content ratio (barley plants; Whole-plant, TARM-92, 0.09 M NaCl, pH 8.1, soil, seeds soaked in 2.0 mM GA3): 2.00
- Zinc(II) content ratio (barley plants; Whole-plant, TARM-92, 0.09 M NaCl, pH 8.1, soil, seeds soaked in H2O): 1.07
- Zinc(II) content ratio (barley plants; Whole-plant, TARM-92, 0.16 M NaCl, pH 8.1, soil, seeds soaked in 0.5 mM Kinetin): 1.13
- Zinc(II) content ratio (barley plants; Whole-plant, TARM-92, 0.16 M NaCl, pH 8.1, soil, seeds soaked in 2.0 mM GA3): 1.06
- Zinc(II) content ratio (barley plants; Whole-plant, TARM-92, 0.16 M NaCl, pH 8.1, soil, seeds soaked in H2O): 1.09
- Zinc(II) content ratio (barley plants; Whole-plant, TARM-92, 0.24 M NaCl, pH 8.1, soil, seeds soaked in 0.5 mM Kinetin): 1.05
- Zinc(II) content ratio (barley plants; Whole-plant, TARM-92, 0.24 M NaCl, pH 8.1, soil, seeds soaked in 2.0 mM GA3): 0.88
- Zinc(II) content ratio (barley plants; Whole-plant, TARM-92, 0.24 M NaCl, pH 8.1, soil, seeds soaked in H2O): 1.17
- increase in phytosiderophore release [1]: 2.5–3 times

- log β, Zn2+ + 2OH- = [Zn(OH)2] ([2]; 0.05 M NaCl): 15.40±0.06
- log β, Zn2+ + 3OH- = [Zn(OH)3]- ([2]; 0.05 M NaCl): 25.16±0.09
- log β, Zn2+ + 2OH- = [Zn(OH)2] ([2]; 0.15 M NaCl): 15.76±0.01
- log β, Zn2+ + 3OH- = [Zn(OH)3]- ([2]; 0.15 M NaCl): 26.15±0.04
- log β, Zn2+ + 2OH- = [Zn(OH)2] ([2]; 0.30 M NaCl): 15.77±0.01
- log β, Zn2+ + 3OH- = [Zn(OH)3]- ([2]; 0.30 M NaCl): 26.10±0.03
- log β, Zn2+ + 2OH- = [Zn(OH)2] ([2]; 0.70 M NaCl): 15.93±0.01
- log β, Zn2+ + 3OH- = [Zn(OH)3]- ([2]; 0.70 M NaCl): 26.51±0.04
- log β, Zn2+ + 2OH- = [Zn(OH)2] ([2]; 1.00 M NaCl): 16.05±0.01
- log β, Zn2+ + 3OH- = [Zn(OH)3]- ([2]; 1.00 M NaCl): 26.56±0.03
SMILES: [Cl-].[Cl-].[Zn+2] [Zinc(II), ZnCl2]
